# Results taken from article PMC9457600, “Synthesis, Leishmanicidal, Trypanocidal, Antiproliferative Assay and Apoptotic Induction of (2-Phenoxypyridin-3-yl)naphthalene-1(2H)-one Derivatives” (Molecules, 2022).
# Columns and labels:
# BJ = assay: MTS assay on non-malignant BJ; format: cell-based; conditions: noncancerous human cell line
# Protocol: (§1) In our laboratory, IMTM, we generated the daunorubicin-resistant subline of CCRF-CEM cells (CEM-DNR bulk) and paclitaxel-resistant subline K562-TAX, as described previously. […] Both ABC transporters are involved in drug resistance. As a control, human fibroblasts MRC-5 and BJ cell lines were used. […] Adherent cells were passaged using PBS containing 0.25% trypsin plus 0.01% EDTA (ethylenediamine tetraacetic acid) every 2–3 days.
# (§2) The antiproliferative activity of compounds was determined using a standard 3-(4,5-dimethylthiazol-2yl)-5-(3-carboxymethoxyphenyl)-2-(4-sulfophenyl)-2H-tetrazolium (MTS) reduction assay on a robotic high throughput screening platform (HighResBio, Boston, MA, USA) following treatment of cells for 3–7 days. The IC50 values were calculated from the appropriate dose–response curves with Dotmatics software (San Diego, CA, USA).
# VERO cells = assay: MTT cytotoxicity on VERO cells; format: cell-based, African green monkey; conditions: Chlorocebus sabaeus, 72 h
# Protocol: Vero cells were derived from the kidney of an African green monkey, cells were maintained in Dulbecco’s Modified Eagle’s Medium (DMEM), supplemented with 10% heat-inactivated FBS and penicillin-streptomycin solution 1% at 37 °C, 5% CO2 atmosphere and > 95% humidity. We evaluated through a colorimetric method the effect of compounds 8–23 on the promastigotes of L. brasiliensis. Briefly, 96-well plates were used, where 2 × 10^6 parasites/mL were seeded. A concentration of 50 μM was used for each compound and an incubation time of 96 h at 29 °C. 3-(4,5-dimethylthiazol-2-yl)-2,5-diphenyl tetrazolium bromide (MTT) 1 μg/mL was added and incubated in darkness for 4 h, acidic isopropanol (4N) was added and the plate was read at 570 nm in a spectrophotometer Synergy HT (Biotek). Miltefosine was used as a reference drug. The EC50 calculation of the selected compound was performed using growth curves. Direct counting was used to monitor the proliferation of parasites, three independent experiments were performed for each concentration of the compounds evaluated. The in vitro evaluations of compounds toxicity by MTT in VERO and BMDM cells follow a methodology described above with some modifications. The selectivity index was calculated with SI = CC50/EC50, where CC50 was the maximum concentration range of compounds 10, 21–23 used to evaluate cytotoxicity in VERO and BMDM cells. The trypanocidal activity of compounds 8–23 was evaluated on the viability of T. cruzi epimastigotes through a colorimetric method adapted with minor modifications. 2 × 10^6 parasites/mL were seeded in a 96-well plate, adding 50 μM of each derivative dissolved in DMSO (final concentration remained below 1%). The plate was incubated for 96 h at 29 °C. Then, 1 μg/mL of 3-(4,5-dimethylthiazol-2-yl)-2,5-diphenyl tetrazolium bromide (MTT) was added and incubated in darkness for 4 h. After this time, acidic isopropanol (4N) was added and the plate was read at 570 nm in a spectrophotometer Synergy HT (Biotek). Benznidazole was used as a reference drug. The in vitro evaluations of compounds toxicity by MTT in VERO and BMDM cells follow a methodology described above with some modifications. Cells were counted in suspension and seeded at 20 × 10^3 cells/well. The test was carried out in triplicate on 96-well microplates in different concentrations: 50 μM, 100 μM, 200 μM and 300 μM, untreated cells and reference drug (benznidazole) controls.
# MRC-5 = assay: MTS assay on non-malignant MRC-5; format: cell-based; conditions: MRC5; noncancerous human cell line
# Protocol: as §1, §2
# A549 cell line = assay: Annexin V-FITC/PI flow cytometry apoptosis assay A549; format: cell-based, human; conditions: 24 h
# Protocol: Cell death was assessed after 24 h incubation with compounds 18 and 22. Apoptosis was analyzed by flow cytometry using annexin V-FITC and propidium iodide (PI). Early apoptosis was defined by annexin V-FITC expression and, necrosis by PI expression, late apoptosis by coexpression of annexin V/PI. Doxorubicin and quercetin were used as positive controls. The results of a typical flow cytometry analysis of both compounds are illustrated in Figure 2 and Figure 3. An increase in early apoptosis and late apoptosis was observed; necrosis was less predominant. The results are summarized in Tables S1 and S2 (Supplementary Materials). The expression of annexin V was different depending on the compound used. K562, A549 cell lines were treated as described by the manufacturer (Santa Cruz Biotechnology), washed, and resuspended in annexin V binding buffer (0.01 M HEPES, 0.14 M NaCl, and 2.5 mM CaCl2) with the subsequent incubation of annexinV-FITC and then PI. An Epics XL cytometer (Beckman Coulter, Indianapolis, IN, USA) was used for the analysis. Untreated cells were the negative controls, and doxorubicin (Dox) (1 μM), and quercetin (QC) (50 μM) were the positive controls. Early apoptosis refers to annexin V expression, late apoptosis, the coexpression of annexin V and PI, and necrosis the sole expression of PI. […] The experiments were performed as described before. To avoid the unwanted effects of DMSO, the concentrations of the compounds were never higher than 100 μM.
# [1] = tested on: epimastigotes of Trypanosoma cruzi strain MHOM/VE/92/YBM; assay: MTT viability of T. cruzi epimastigotes; format: cell-based
smiles,measurement,setting,value
"COc1ccc2c(c1)CC/C(=C\c1cccnc1Oc1ccc(Cl)cc1)C2=O [Compound 22, (E)-2-{[2-(4-Chlorophenoxy)pyridin-3-yl]methylene}-3,4-dihydro-6-methoxynaphthalen-1(2H)-one]",IC50,BJ,> 50 µM
same,EC50,VERO cells,> 100 µM
same,IC50,MRC-5,> 50 µM
same,AV+/IP+ (late apoptosis),"A549 cell line; A549, 10 µM",23.30%
same,AV+/IP- (early apoptosis),"A549 cell line; A549, 10 µM",13.80%
same,AV-/IP+ (necrosis),"A549 cell line; A549, 10 µM",8.44%
same,AV+/IP+ (late apoptosis),"A549 cell line; A549, 25 µM",78.30%
same,AV+/IP- (early apoptosis),"A549 cell line; A549, 25 µM",9.36%
same,AV-/IP+ (necrosis),"A549 cell line; A549, 25 µM",9.32%
same,SIV/Tc selectivity index on T. cruzi/VERO,[1]; SI = CC50/EC50,20
same,selectivity index T. cruzi vs BMDM (CC50/EC50),[1]; SI = CC50/EC50,93
same,EC50,"[1]; Trypanosoma cruzi, 72 h, epimastigotes",5.03 ± 0.49 µM
